Reference: patent US7235379B2, “Method and medium for the detection/identification of microorgranisms with esterase activity” (Bio Merieux, priority 2000, dated 2007)
Counter-ions that a name gives are not always drawn. Like-named read-outs stand apart in the source and are kept apart here.

Key:
[1] = tested on: Salmonella enteritidis 002; assay: Ex.1 colony coloration, 5-bromo-3-indolyl nonanoate, DMSO/Tween 20, MacConkey; format: cell-based
Experimental: (§5) The esterase substrate tested is 5-bromo-3-indolyl nonanoate. A 40 g/l stock solution of substrate is prepared in a mixture of 40% dimethyl sulfoxide and 60% Tween 20. A sufficient volume is added to a supercooled MacConkey medium (without neutral red) to give a substrate concentration of 500 mg/l.

[2] = tested on: Acinetobacter calcoaceticus 034; assay: as above; format: cell-based
Experimental: as §5

Candida tropicalis 030 = assay: Ex.3 colony coloration, 5-bromo-4-chloro-3-indolyl nonanoate 250 mg/l, DMSO/Tween 20; format: cell-based; further: key: 0: no activity; 0.1: trace of coloration; 0.5: very pale coloration; 1: distinct coloration of low intensity; 2: clear coloration of medium intensity; 3: intense coloration; 4: very intense coloration
Listeria innocua 029 = assay: as above; format: cell-based; further: key: 0: no activity; 0.1: trace of coloration; 0.5: very pale coloration; 1: distinct coloration of low intensity; 2: clear coloration of medium intensity; 3: intense coloration; 4: very intense coloration
[3] = tested on: Salmonella typhimurium 010; assay: Ex.2 colony coloration, 5-bromo-3-indolyl nonanoate, methanol/bile salts, MacConkey; format: cell-based; on intensity of coloration: key: 0: no activity; 0.1: trace of coloration; 0.5: very pale coloration; 1: distinct coloration of low intensity; 2: clear coloration of medium intensity; 3: intense coloration; 4: very intense coloration
[4] = tested on: Acinetobacter calcoaceticus 034; assay: as above; format: cell-based
[5] = tested on: Salmonella paratyphi A 006
Experimental: (§1) The esterase substrate tested is 5-bromo-4-chloro-3-indolyl nonanoate. A 40 g/l stock solution of substrate is prepared in a mixture of 40% dimethyl sulfoxide and 60% Tween 20. A sufficient volume is added to a supercooled MacConkey medium (without neutral red) to give a substrate concentration of 250 mg/l.
(§2) Microorganisms originating from the Applicant's collection were inoculated onto this medium from a 0.5 McFarland suspension by isolation in three quadrants. The dishes were incubated at 37° C. for 48 hours. The colonies formed were examined visually after 24 and 48 hours of incubation. The coloration of these colonies and the intensity of this coloration were noted.
(§3) Note: In the above Examples, the numbers following the strains correspond to the number of each strain referenced in the Applicant's collection. The intensity of coloration corresponds to an arbitrary scale defined as follows: […]

Salmonella spp. 017 [6] = tested on: Salmonella spp. 017
Experimental: as §1, §2, §3

[7] = tested on: Salmonella paratyphi A 006; remark: listed apart in the source
Experimental: (§4) The esterase substrate tested is 5-bromo-3-indolyl nonanoate. A 25 g/l stock solution of substrate is prepared in methanol to which 5 g/l of bile salts have been added. A sufficient volume is added to a supercooled MacConkey medium (without neutral red) to give a substrate concentration of 500 mg/l.
as §2, §3

Salmonella spp. 017 [8] = tested on: Salmonella spp. 017; remark: listed apart in the source
Experimental: as §4, §2, §3

CCCCC(CC)CCC(CC(C)C)OS(=O)(=O)O (centres unmarked) [Tergitol 4, 7-ethyl-2-methyl-4-undecanoate hydrogensulfate or its sodium salt]
color ([1]; 2 ml/l, 24 h): gray | intensity of coloration ([1]; 2 ml/l, 24 h): 2 | color ([1]; 2 ml/l, 48 h): gray | intensity of coloration ([1]; 2 ml/l, 48 h): 2 | color ([1]; 4 ml/l, 24 h): gray | intensity of coloration ([1]; 4 ml/l, 24 h): 3 | color ([1]; 4 ml/l, 48 h): gray | intensity of coloration ([1]; 4 ml/l, 48 h): 3 | color ([1]; 8 ml/l, 24 h): gray | intensity of coloration ([1]; 8 ml/l, 24 h): 3.5 | color ([1]; 8 ml/l, 48 h): gray | intensity of coloration ([1]; 8 ml/l, 48 h): 3.5 | color ([1]; 16 ml/l, 24 h): gray | intensity of coloration ([1]; 16 ml/l, 24 h): 3.5 | color ([1]; 16 ml/l, 48 h): gray | intensity of coloration ([1]; 16 ml/l, 48 h): 3.5 | color ([2]; 2 ml/l, 24 h): gray | intensity of coloration ([2]; 2 ml/l, 24 h): 2 | color ([2]; 2 ml/l, 48 h): gray | intensity of coloration ([2]; 2 ml/l, 48 h): 3 | color ([2]; 4 ml/l, 24 h): gray | intensity of coloration ([2]; 4 ml/l, 24 h): 3 | color ([2]; 4 ml/l, 48 h): gray | intensity of coloration ([2]; 4 ml/l, 48 h): 3 | color ([2]; 8 ml/l, 24 h): gray | intensity of coloration ([2]; 8 ml/l, 24 h): 3 | color ([2]; 8 ml/l, 48 h): gray | intensity of coloration ([2]; 8 ml/l, 48 h): 4 | color ([2]; 16 ml/l, 24 h): gray | intensity of coloration ([2]; 16 ml/l, 24 h): 0.5 | color ([2]; 16 ml/l, 48 h): gray | intensity of coloration ([2]; 16 ml/l, 48 h): 0.5 | intensity of coloration (Candida tropicalis 030; 0.001 ml/l, 24 h): 2 | intensity of coloration (Candida tropicalis 030; 0.001 ml/l, 48 h): 3 | intensity of coloration (Candida tropicalis 030; 0.01 ml/l, 24 h): 2 | intensity of coloration (Candida tropicalis 030; 0.01 ml/l, 48 h): 3 | intensity of coloration (Candida tropicalis 030; 0.1 ml/l, 24 h): 2 | intensity of coloration (Candida tropicalis 030; 0.1 ml/l, 48 h): 3 | intensity of coloration (Candida tropicalis 030; 1 ml/l (1st col), 24 h): 0.5 | intensity of coloration (Candida tropicalis 030; 1 ml/l (1st col), 48 h): 3 | intensity of coloration (Candida tropicalis 030; 1 ml/l (2nd col), 24 h): 0.5 | intensity of coloration (Candida tropicalis 030; 1 ml/l (2nd col), 48 h): 3 | intensity of coloration (Listeria innocua 029; 0.001 ml/l, 24 h): 0.1 | intensity of coloration (Listeria innocua 029; 0.001 ml/l, 48 h): 2 | intensity of coloration (Listeria innocua 029; 0.01 ml/l, 24 h): 0.1 | intensity of coloration (Listeria innocua 029; 0.01 ml/l, 48 h): 2 | intensity of coloration (Listeria innocua 029; 0.1 ml/l, 24 h): 0.1 | intensity of coloration (Listeria innocua 029; 0.1 ml/l, 48 h): 2 | intensity of coloration (Listeria innocua 029; 1 ml/l (1st col), 24 h): 0.1 | intensity of coloration (Listeria innocua 029; 1 ml/l (1st col), 48 h): 2 | intensity of coloration (Listeria innocua 029; 1 ml/l (2nd col), 24 h): 0.1 | intensity of coloration (Listeria innocua 029; 1 ml/l (2nd col), 48 h): 2 | color ([3]; 2 ml/l, 24 h): gray | intensity of coloration ([3]; 2 ml/l, 24 h): 2 | color ([3]; 2 ml/l, 48 h): gray | intensity of coloration ([3]; 2 ml/l, 48 h): 2 | color ([3]; 4 ml/l, 24 h): gray | intensity of coloration ([3]; 4 ml/l, 24 h): 2 | color ([3]; 4 ml/l, 48 h): gray | intensity of coloration ([3]; 4 ml/l, 48 h): 3 | color ([3]; 8 ml/l, 24 h): gray | intensity of coloration ([3]; 8 ml/l, 24 h): 3 | color ([3]; 8 ml/l, 48 h): gray | intensity of coloration ([3]; 8 ml/l, 48 h): 3 | color ([3]; 16 ml/l, 24 h): gray | intensity of coloration ([3]; 16 ml/l, 24 h): 3 | color ([3]; 16 ml/l, 48 h): gray | intensity of coloration ([3]; 16 ml/l, 48 h): 3.5 | color ([4]; 2 ml/l, 24 h): gray | intensity of coloration ([4]; 2 ml/l, 24 h): 2 | color ([4]; 2 ml/l, 48 h): gray | intensity of coloration ([4]; 2 ml/l, 48 h): 3 | color ([4]; 4 ml/l, 24 h): gray | intensity of coloration ([4]; 4 ml/l, 24 h): 3 | color ([4]; 4 ml/l, 48 h): gray | intensity of coloration ([4]; 4 ml/l, 48 h): 3 | color ([4]; 8 ml/l, 24 h): gray | intensity of coloration ([4]; 8 ml/l, 24 h): 3 | color ([4]; 8 ml/l, 48 h): gray | intensity of coloration ([4]; 8 ml/l, 48 h): 4 | color ([4]; 16 ml/l, 24 h): gray | intensity of coloration ([4]; 16 ml/l, 24 h): 0.5 | color ([4]; 16 ml/l, 48 h): gray | intensity of coloration ([4]; 16 ml/l, 48 h): 0.5 | intensity of coloration ([5]; 0.001 ml/l, 24 h): 0.1 | intensity of coloration ([5]; 0.001 ml/l, 48 h): 0.5 | intensity of coloration ([5]; 0.01 ml/l, 24 h): 0.1 | intensity of coloration ([5]; 0.01 ml/l, 48 h): 1 | intensity of coloration ([5]; 0.1 ml/l, 24 h): 0.1 | intensity of coloration ([5]; 0.1 ml/l, 48 h): 0.5 | intensity of coloration ([5]; 1 ml/l (1st col), 24 h): 0.5 | intensity of coloration ([5]; 1 ml/l (1st col), 48 h): 2 | intensity of coloration ([5]; 1 ml/l (2nd col), 24 h): 0.5 | intensity of coloration ([5]; 1 ml/l (2nd col), 48 h): 2 | intensity of coloration (Salmonella spp. 017 [6]; 0.001 ml/l, 24 h): 2 | intensity of coloration (Salmonella spp. 017 [6]; 0.001 ml/l, 48 h): 3 | intensity of coloration (Salmonella spp. 017 [6]; 0.01 ml/l, 24 h): 2 | intensity of coloration (Salmonella spp. 017 [6]; 0.01 ml/l, 48 h): 3 | intensity of coloration (Salmonella spp. 017 [6]; 0.1 ml/l, 24 h): 2 | intensity of coloration (Salmonella spp. 017 [6]; 0.1 ml/l, 48 h): 3 | intensity of coloration (Salmonella spp. 017 [6]; 1 ml/l (1st col), 24 h): 2 | intensity of coloration (Salmonella spp. 017 [6]; 1 ml/l (1st col), 48 h): 3 | intensity of coloration (Salmonella spp. 017 [6]; 1 ml/l (2nd col), 24 h): 2 | intensity of coloration (Salmonella spp. 017 [6]; 1 ml/l (2nd col), 48 h): 3 | color ([7]; 2 ml/l, 24 h): gray | intensity of coloration ([7]; 2 ml/l, 24 h): 0.1 | color ([7]; 2 ml/l, 48 h): gray | intensity of coloration ([7]; 2 ml/l, 48 h): 0.5 | color ([7]; 4 ml/l, 24 h): gray | intensity of coloration ([7]; 4 ml/l, 24 h): 0.1 | color ([7]; 4 ml/l, 48 h): gray | intensity of coloration ([7]; 4 ml/l, 48 h): 1 | color (Salmonella spp. 017 [8]; 2 ml/l, 24 h): gray | intensity of coloration (Salmonella spp. 017 [8]; 2 ml/l, 24 h): 1 | color (Salmonella spp. 017 [8]; 2 ml/l, 48 h): gray | intensity of coloration (Salmonella spp. 017 [8]; 2 ml/l, 48 h): 1.5 | color (Salmonella spp. 017 [8]; 4 ml/l, 24 h): gray | intensity of coloration (Salmonella spp. 017 [8]; 4 ml/l, 24 h): 1 | color (Salmonella spp. 017 [8]; 4 ml/l, 48 h): gray | intensity of coloration (Salmonella spp. 017 [8]; 4 ml/l, 48 h): 1.5 | color (Salmonella spp. 017 [8]; 8 ml/l, 24 h): gray | intensity of coloration (Salmonella spp. 017 [8]; 8 ml/l, 24 h): 1 | color (Salmonella spp. 017 [8]; 8 ml/l, 48 h): gray | intensity of coloration (Salmonella spp. 017 [8]; 8 ml/l, 48 h): 1.5 | color (Salmonella spp. 017 [8]; 16 ml/l, 24 h): gray | intensity of coloration (Salmonella spp. 017 [8]; 16 ml/l, 24 h): 1 | color (Salmonella spp. 017 [8]; 16 ml/l, 48 h): gray | intensity of coloration (Salmonella spp. 017 [8]; 16 ml/l, 48 h): 1.5
